Where two headings read alike, the source gives them in different places. *1 amine or outer side, *2 acyl side, *3 side chain or, on linkers, in order; H or OH if unused. Where a SMILES comes first, the peptide text is derived from it. Suc = O=C(CCC(=O)[*:2])[*:1]
Columns and labels:
[1] = system: JHU-4 (MAT-LyLu) prostate tumor; details: IRL1620 3 nmol/kg alone; day 19
[2] = system: JHU-4 (MAT-LyLu) prostate tumor; details: IRL1620 3 nmol/kg alone; day 16
[3] = Effect of IRL1620 on plasma pharmacokinetics of paclitaxel, HPLC-UV; type: in vivo, rat; details: normal or tumor bearing rats; paclitaxel i.v. 3 mg/kg 15 minutes after IRL1620 3 nmol/kg
Experimental: Virgin female Sprague Dawley rats (Harlan Co., Madison, Wis.), 48 days old (120-140 g) were used for this study. Upon arrival, all rats were housed three to a cage, in a room with controlled temperature (23±1° C.), humidity (50±10%) and artificial light (0600-1800 hr). The rats were given food and water ad libitum. The experiments were begun only after the rats have been acclimatized to the environment for at least 4 days.
N-methyl-n-nitrosourea (MNU) was administered at a dose of 50 mg/kg, i.p. and rats were palpated twice weekly. Once tumors reached about 75-100 mm^3, pharmacokinetic studies were performed.
HPLC-UV studies. […]
Plasma samples were analyzed for paclitaxel using an HPLC system. […] A 100 μL (lower standard curve and samples collected after IV administration) aliquot of the reconstituted material was injected into a 4 mm NovaPak 150×3.9 mm C18 column (Waters Associates, Milford, Mass.) preceded by a 4 mm NovaPak 20×3.9 mm C18 precolumn using a Waters 2695 separations module connected to a Waters 2487 absorbance detector set at 227 nm. […] Plasma concentrations for paclitaxel were calculated from the ratio of the area of the paclitaxel peak to the area of the N-cyclohexyl benzamide peak using least-squares linear regression and weighting by 1/x. Within day and between days variability measured by a coefficient of variation was <10%. […]

[4] = system: human melanoma cells (UISO-MEL-2) tumor; details: melanoma mice
[5] = system: JHU-4 (MAT-LyLu) prostate tumor; experiment: Effect of IRL1620 on [^14C]doxorubicin concentration in tumor and organs of prostate tumor bearing rats; type: in vivo, rat; details: for increase in concentration of [^14C]doxorubicin in tumor compared to saline treated rats: sacrifice 3 hours after
Experimental: Prostate tumors were induced in male Copenhagen rats using JHU-4 (MAT-LyLu) cells obtained from ATCC (Manassas, Va.). See Gaddipati et al., J Exp Ther Oncol, 4(3): 203-12 (2004) which is hereby incorporated by reference. The cells were maintained in RPMI 1640 medium supplemented with fetal bovine serum (10%) in a humidified incubator containing 5% CO2 at 37° C. Hair was shaved from the dorsal side of the neck, and animals were inoculated with 10,000 JHU-4 (MAT-LyLu) cells in 100 μl phosphate buffered saline by subcutaneous (s.c.) injection. Tumor appearance and location was monitored by manual palpation and tumor diameters were measured with a digital caliper. Experimental procedures began once tumor size reached about 200 mm^3.
Biodistribution Study. Tumor bearing rats were randomly grouped (N=6/group) to receive saline or IRL1620 (1, 3 or 6 nmol/kg) via the tail vein in a final volume of 0.2 ml. Rats from each group then received [^14C]doxorubicin (1 μCi/rat) i.v. in a final volume of 1.0 ml 15 minutes after saline or IRL1620 administration. Animals were then sacrificed 3 hours after [^14C]doxorubicin administration. The concentration of [^14C]doxorubicin in the tumor, heart, brain, kidneys, liver, lungs, bone marrow, prostate, skeletal muscles and spleen were examined. Specifically, tumor and organs were sliced into small pieces. The femurs from both legs were separated and weighed with bone marrow flushed out using a syringe containing tissue solubilizer. About 500 mg of tissue or tumor was placed in separate vials containing tissue solubilizer (6 ml) and incubated in a water bath at about 50° C. The vials were removed from the water bath after the tissue or tumor was dissolved and 1.2 ml of 10% glacial acetic acid was added. The contents of the vial were then equally divided into 3 vials and 15 ml of liquid scintillation cocktail (Safety Solve, RPI Corp, Chicago, Ill.) was added to each vial and kept overnight for equilibration. The radioactivity in the tubes was counted using a liquid scintillation counter (Beckman Coulter, LS 6500).

MNU-induced breast tumor = experiment: Effect of IRL1620 on bio-distribution of [^3H] paclitaxel in tumor and major organs of breast tumor bearing rats; details: IRL1620 3 nmol/kg
[6] = system: MNU-induced breast tumors; details: IRL1620 3 nmol/kg alone; 5 doses; 30 days after final dose
[7] = paclitaxel plasma, three compartmental model, tumor bearing rats, after vehicle or IRL1620 3 nmol/kg

CC[C@H](C)[C@H](NC(=O)[C@H](CC(=O)O)NC(=O)[C@H](CC(C)C)NC(=O)[C@H](Cc1c[nH]cn1)NC(=O)[C@H](C)NC(=O)[C@H](Cc1ccccc1)NC(=O)[C@H](Cc1ccc(O)cc1)NC(=O)[C@@H](NC(=O)[C@H](C)NC(=O)[C@H](CCC(=O)O)NC(=O)[C@H](CCC(=O)O)NC(=O)[C@H](CC(=O)O)NC(=O)CCC(=O)O)C(C)C)C(=O)N[C@H](C(=O)N[C@@H](Cc1c[nH]c2ccccc12)C(=O)O)[C@@H](C)CC [IRL1620, N-suc-[Glu9, Ala11, 15]ET-1 (8-21)] (Suc-DEEAVYFAHLDIIW-OH)
body weight [1]: 175.72 ± 2.35 g
effect on the pharmacokinetic profile of paclitaxel (non-compartmental analysis, tumor bearing rats, IRL1620 3 nmol/kg i.v. 15 minutes before paclitaxel): did not affect
Lambda (paclitaxel plasma, non-compartmental, tumor bearing rats, paclitaxel i.v. 15 minutes after vehicle or IRL1620 3 nmol/kg): 0.10 ± 0.05
K10 [7]: 1.72 ± 0.57
K12 [7]: 34.93 ± 23.26
K13 [7]: 3.92 ± 1.88
paclitaxel compartmental pharmacokinetic parameters in the IRL1620 treated group versus the vehicle treated group (three compartmental model, IRL1620 3 nmol/kg 15 minutes before paclitaxel): not significantly different
body weight [2]: 202.2 ± 7.28 g
percent difference in body weight gain from the beginning of the experiment [2]: 14.19±1.66%
pharmacokinetic profile of paclitaxel [3]: not affected
accumulation of [^3H]paclitaxel in the heart, kidneys, liver, lungs or spleen compared to saline treated animals ([4]; IRL1620 3 nmol/kg): did not produce significant increases
increase in tumor [^3H]paclitaxel compared to vehicle treated mice ([4]; IRL1620 3 nmol/kg 15 minutes before [^3H]paclitaxel): 572.99%
tumor [^3H]paclitaxel concentration ([4]; IRL1620 3 nmol/kg 15 minutes before [^3H]paclitaxel, sacrifice 3 hours after): 274.28 nmol/g tissue
change in the uptake of [^14C]doxorubicin in tumor or other tissues ([5]; 1 nmol/kg IRL1620 15 minutes before [^14C]doxorubicin): did not produce any significant change
increase in concentration of [^14C]doxorubicin in tumor compared to saline treated rats ([5]; 3 nmol/kg IRL1620 15 minutes before [^14C]doxorubicin): 115.85%
increase in concentration of [^14C]doxorubicin in tumor compared to saline treated rats ([5]; 6 nmol/kg IRL1620 15 minutes before [^14C]doxorubicin): 80.02%
accumulation of [^14C]doxorubicin in the heart, brain, kidneys, liver, lungs, bone marrow, prostate, skeletal muscles or spleen compared to control animals ([5]; IRL1620 1, 3 or 6 nmol/kg): No dose of IRL1620 produced significant increases
accumulation of paclitaxel in the liver, lungs, kidneys and spleen compared to control animals (MNU-induced breast tumor): did not significantly alter
increase in tumor paclitaxel concentration compared to saline treated rats (MNU-induced breast tumor; [^3H] paclitaxel administered 15 minutes after IRL1620, sacrifice 3 hours after paclitaxel): 277.1%
increase in tumor paclitaxel concentration compared to saline treated rats (MNU-induced breast tumor; [^3H] paclitaxel administered 240 minutes after IRL1620): 34.7%
increase in body weight compared to baseline [6]: < 10%

Reference: US8729023B2 (priority 2002, dated 2014)
